# Source: patent publication US20200032271A1, “COMBINATION THERAPY WITH LIPOSOMAL ANTISENSE OLIGONUCLEOTIDES” (Bio-Path Holdings, Inc., priority 2016, published 2020)
# “And” between values parts separate entries of the source, which are not always exact repeats. Identical values can stand only once. [PEt] = P-ethoxy (ethyl phosphotriester) internucleoside linkage
# Columns and labels:
# Grb2 [1] = experiment: Selective inhibition of Grb2 protein production (SDS-PAGE, blot) in BV173 and ALL-1 cells; type: cell-based, human; conditions: 4 to 8 μM, three days, Crk1 as control protein
# Procedure: FIGS. 5A-B. Selective inhibition of the production of Grb2 proteins. […] After three days of culture, protein-containing layers were prepared and subjected to SDS-PAGE and transferred to nitrocellulose membranes. Blots were cut into sections and incubated with antibodies specific for Grb2 (target) or Crk1 (control) protein. BP1001 is a neutral liposome incorporated with the nuclease-resistant, hydrophobic P-ethoxy antisense oligos targeted to Grb2 mRNA.
# [2] = tested on: imatinib-sensitive and imatinib-resistant CML cell lines; experiment: Growth inhibition and ERK1,2/Akt phosphorylation in CML cell lines; type: cell-based; conditions: preclinical studies
# From the text: BP1001 is a neutral liposome incorporated with the nuclease-resistant, hydrophobic P-ethoxy antisense oligos targeted to Grb2 mRNA. In preclinical studies, BP1001 was effective in inducing growth inhibition and decreasing ERK1,2 and Akt phosphorylation in imatinib-sensitive and imatinib-resistant CML cell lines.
# [3] = tested on: 32Dp210 Bcr-Abl positive leukemia cells; experiment: Survival of mice injected with 32Dp210 Bcr-Abl positive leukemia cells, first study; type: in vivo
# Procedure: In one study, mice injected with 32Dp210 Bcr-Abl positive leukemia cells were treated with BP1001 (15 mg/kg/dose) or control (empty DOPC liposomes) intravenously beginning one day after injection of tumor cells, twice weekly for up to 6 weeks Mice were observed daily for moribundity/morbidity. All surviving mice were euthanized on Day 40. In mice injected with 32Dp210 Bcr-Abl positive leukemia cells, 60% treated with BP1001 survived to 40 days (end of study) compared to 17% of mice receiving empty liposomes. Mean survival duration in these treated animals was 31.6±13.1 days compared to 23.7±8.3 days in the empty liposome group (FIG. 6A).
# [4] = tested on: 32Dp210 Bcr-Abl positive leukemia cells; experiment: Survival of mice injected with 32Dp210 Bcr-Abl positive leukemia cells, second study; type: in vivo
# Procedure: In a second study in mice injected with 32Dp210 Bcr-Abl positive leukemia cells, treatment groups received BP1001 at 5, 10, or 15 mg/kg/dose administered intravenously beginning one day after injection of tumor cells, twice weekly for up to 7 weeks. Control groups received DOPC liposomes containing an oligonucleotide of random sequence (15 mg/kg/dose) on the same schedule. Mice were observed daily for moribundity/morbidity. Surviving mice in the control groups were euthanized on Day 41, and in the treatment groups on Day 48.
# CHO cells = experiment: In vitro mammalian chromosome aberration test; type: cell-based; conditions: non-activated and S9-activated
# Procedure: BP1001 was tested in the chromosome aberration assay using CHO cells in both the absence and presence of an Aroclor-induced S9 activation system. A preliminary toxicity test was performed to establish the dose range for the chromosome aberration assay. The chromosome aberration assay was used to evaluate the clastogenic potential of the BP1001. Based on the findings of this study, BP1001 was concluded to be negative for the induction of structural and numerical chromosome aberrations in CHO cells in both the non-activated and the S9-activated test systems.
# Grb2 [5] = experiment: Flow cytometry of Grb2 levels in circulating leukemia cells of patients; type: in vivo, human; conditions: for Grb2 decrease (%) (Day 15) / Grb2 decrease (%) (Day 22 or end-of-treatment): individual subjects
# From the text: Flow cytometry was used to determine the levels of Grb2 and pErk proteins in the circulating leukemia cells of patients who were on BP1001 single agent therapy, and were reported as median fluorescent intensity (MFI). MFI of Grb2 and pErk during treatment were compared to those at baseline.
# Peripheral blood was collected from patients in cohorts 3, 4, 5, and 6, before being dosed on Cycle 1 days 1, 8, 15 and 22, and Cycle 2 day 1. White blood cells were isolated from peripheral blood using BD Vacutainer CPT cell preparation tubes with sodium heparin (BD Dickinson), fixed and stored in −80° C. freezer. Flow cytometry was utilized to determine Grb2 and phosphorylated Erk1,2 (pErk) levels in CD33-expressing cells using a validated method (Flow Contract Site Laboratory, Bothell, Wash., USA).
# Flow cytometry was utilized to determine the levels of Grb2 and pErk proteins in the circulating leukemia cells of patients who were on BP1001 single agent therapy, and were reported as median fluorescent intensity (MFI). MFI of Grb2 and pErk during treatment were compared to those at baseline (Table 7).
# [6] = tested on: peripheral blood and bone marrow blasts; experiment: Anti-leukemia activity in patients (peripheral blood and bone marrow blasts, response); type: in vivo, human; conditions: for Bone marrow blasts (%) Nadir / Bone marrow blasts (%) Off-Rx / Peripheral blood blasts (%) Off-Rx / Peripheral blood blasts (%) Nadir: individual evaluable patients
# Procedure: Peripheral blood assessments were done at baseline (within 14 days of study start), and on days 1, 8, 15, 22, at completion of cycle one, and as clinically indicated. Bone marrow assessments were done at baseline (within 14 days of study start), at completion of cycle one, cycle 2, and as clinically indicated. Baseline cytogenetics data were obtained before treatment. Molecular analysis was conducted to detect somatic mutations on the baseline bone marrow.
# BP1001, as a single agent therapy, decreased >50% peripheral blood blasts in 9 of 21 patients, and decreased >50% bone marrow blasts in 3 of 21 patients (Table 8). […] Four patients completed 2 cycles of treatment and three patients completed 5 cycles of treatment (Table 8). These seven patients had diverse cytogenetics and molecular abnormalities such as JAK2 and NRAS mutations (Table 8). […]
# [7] = in vivo
# From the text: Each participant who receives study drug will be closely monitored for AEs. An AE is any untoward medical occurrence associated with the use of a drug in humans, whether or not considered drug related. Adverse events include any signs, symptoms, illnesses, or diagnoses that appear or worsen during the course of the study. An AE may be an intercurrent illness, an injury, or any concomitant impairment of the participant's health. All AEs occurring at any time from the time of consent through the end of treatment visit will be reported regardless of the etiology of the event. The NCI's CTCAE v4.03 will be used for grading AEs.
# The causal relationship to BP1001 IP or Das for all AEs will be assessed as follows: (1) definitely related—AEs clearly attributable to study regimen administration; (2) probably related—AEs for which there is a reasonable possibility of causal association to study regimen; (3) possibly related—AEs for which there is confounding by comorbidities, medications or other considerations but for which it is not unreasonable that the AE may have been caused by study regimen; or (4) not related—AEs that are considered clearly not causally related to study regimen, or for which there is a clear alternative explanation
# [8] = Multiple-dose toxicity study in mice; conditions: mouse
# [9] = 15 mg/kg/dose i.v. twice weekly
# [10] = of 21 evaluable patients, single agent
# [11] = 15 and 25 mg oligo/kg i.v. daily for five days
substance,measurement,setting,value
"BP1001: liposome-incorporated P-ethoxy antisense oligodeoxynucleotide (5′-ATATTTGGCGATGGCTTC-3′, SEQ ID NO: 1) specific to grb2 mRNA, in neutral DOPC liposomes (DNA, all [PEt], methylation of C not given here; incorporated in neutral DOPC liposomes)",Grb2 protein production,Grb2 [1],selectively inhibit Grb2 protein production
same,"growth inhibition and decrease of ERK1,2 and Akt phosphorylation",[2],effective
same,Mean survival duration,[3]; [9],31.6 ± 13.1 days
same,mice surviving to 40 days (end of study),[3]; 15 mg/kg/dose i.v. twice weekly from day 1 after tumor cells,60%
same,Mean survival duration,[4]; 5 mg/kg/dose i.v. twice weekly,20.8 ± 4.7 days
same,Mean survival duration,[4]; 10 mg/kg/dose i.v. twice weekly,22.2 ± 8.7 days
same,Mean survival duration,[4]; [9],44.2 ± 8.5 days
same,mice surviving to 48 days (end of study),[4]; [9],80%
same,induction of structural and numerical chromosome aberrations,CHO cells,negative
same,Grb2 decrease (%) (Day 15),"Grb2 [5]; cohort 3, 20 mg/m^2",0% (2×) and 56%
same,Grb2 decrease (%) (Day 22 or end-of-treatment),"Grb2 [5]; cohort 3, 20 mg/m^2",28% and 47% and 57%
same,Grb2 decrease (%) (Day 15),"Grb2 [5]; cohort 4, 40 mg/m^2",63% and 47%
same,Grb2 decrease (%) (Day 22 or end-of-treatment),"Grb2 [5]; cohort 4, 40 mg/m^2",54% and 0% and 34%
same,Grb2 decrease (%) (Day 15),"Grb2 [5]; cohort 5, 60 mg/m^2",0% and 57% and 54%
same,Grb2 decrease (%) (Day 22 or end-of-treatment),"Grb2 [5]; cohort 5, 60 mg/m^2",30% and 65% and 43%
same,Grb2 decrease (%) (Day 15),"Grb2 [5]; cohort 6, 90 mg/m^2",0% and 85% and 63%
same,Grb2 decrease (%) (Day 22 or end-of-treatment),"Grb2 [5]; cohort 6, 90 mg/m^2",0% and 91% and 40%
same,average decrease in Grb2 levels,Grb2 [5]; last measured sample,49%
same,samples with ≥25% decrease of Grb2 levels,"Grb2 [5]; last measured sample (end of treatment or cycle 1 day 22), MFI vs baseline",10 out of 12
same,Bone marrow blasts (%) Nadir,"[6]; 5 mg/m^2, no Ara-C",10% and 4%
same,Bone marrow blasts (%) Off-Rx,"[6]; 5 mg/m^2, no Ara-C",10% and 6%
same,Peripheral blood blasts (%) Off-Rx,"[6]; 5 mg/m^2, no Ara-C",1% and 50% and 21% and 97% and 5% and 0%
same,Bone marrow blasts (%) Nadir,"[6]; 10 mg/m^2, no Ara-C",76% and None and 38%
same,Bone marrow blasts (%) Off-Rx,"[6]; 10 mg/m^2, no Ara-C",76% and 80% and 38%
same,Peripheral blood blasts (%) Nadir,"[6]; 10 mg/m^2, no Ara-C",31% and 5% and 43%
same,Peripheral blood blasts (%) Off-Rx,"[6]; 10 mg/m^2, no Ara-C",72% and 63% and 74%
same,Bone marrow blasts (%) Nadir,"[6]; 20 mg/m^2, no Ara-C",3%
same,Peripheral blood blasts (%) Nadir,"[6]; 20 mg/m^2, no Ara-C",0%
same,Peripheral blood blasts (%) Off-Rx,"[6]; 20 mg/m^2, no Ara-C",1% and 0%
same,Bone marrow blasts (%) Nadir,"[6]; 40 mg/m^2, no Ara-C",None (2×) and 54%
same,Bone marrow blasts (%) Off-Rx,"[6]; 40 mg/m^2, no Ara-C",36% and 80%
same,Peripheral blood blasts (%) Nadir,"[6]; 40 mg/m^2, no Ara-C",3% and None (2×)
same,Peripheral blood blasts (%) Off-Rx,"[6]; 40 mg/m^2, no Ara-C",19% and 80% and 97%
same,Bone marrow blasts (%) Nadir,"[6]; 60 mg/m^2, no Ara-C",88% and None
same,Bone marrow blasts (%) Off-Rx,"[6]; 60 mg/m^2, no Ara-C",88% and 92%
same,Peripheral blood blasts (%) Nadir,"[6]; 60 mg/m^2, no Ara-C",93% and 7% and 17%
same,Peripheral blood blasts (%) Off-Rx,"[6]; 60 mg/m^2, no Ara-C",98% and 24% and 82%
same,Bone marrow blasts (%) Nadir,"[6]; 90 mg/m^2, no Ara-C",None and 22%
same,Bone marrow blasts (%) Off-Rx,"[6]; 90 mg/m^2, no Ara-C",17% and 22%
same,Peripheral blood blasts (%) Nadir,"[6]; 90 mg/m^2, no Ara-C",0% and None (2×)
same,Peripheral blood blasts (%) Off-Rx,"[6]; 90 mg/m^2, no Ara-C",0% and 42% and 92%
same,Peripheral blood blasts (%) Nadir,"[6]; BP1001 5 mg/m^2, no Ara-C",0% (2×) and 7% and 5% and 82% and 2%
same,patients with improvement of leukemia cutis,[6]; [10],two
same,patients with transient decline in blasts,[6]; [10],six
same,patients with ≥50% reduction in peripheral or bone marrow blasts,"[6]; of 21 evaluable patients, single agent (Part A)",10
same,peripheral blasts after four BP1001 infusions,"[6]; one CML blast crisis patient with T315I, from 81%",5%
same,patients with >50% decrease of bone marrow blasts,[6]; single agent therapy,3 of 21
same,patients with >50% decrease of peripheral blood blasts,[6]; single agent therapy,9 of 21
same,"Infections and infestations ≥Grade 3, total events",[7],(9/9)
same,"Infections and infestations ≥Grade 3, total patients",[7],(9/9)
same,"WBC counts at two weeks post-injection, persisting at six weeks",[8]; [11],Reduction
same,morbidity or mortality,[8]; [11],No signs of morbidity or mortality
same,drug-related lesions in examined organs,[8]; multiple i.v. 15-25 mg/kg,no drug-related lesions
